Where “and” joins values, the source holds several entries; their conditions need not be identical. Equal entries are not always repeated.

For test [1], the target named is T1, EP2 (Homo sapiens, UniProt P43116). Put plainly: EP2 cAMP functional assay. The format is cell-based. The text has this:
(§1) United States Patent Application Publication No. 20070129552, describes the methods used to obtain the in vitro data in Table 1 below. The part of that reference which describes the method is incorporated by reference herein.

The target of test [2] is T1, EP2. The experiment in a line: EP2 binding assay.
Excerpt: as §1

T1 sequence (P43116 whole entry): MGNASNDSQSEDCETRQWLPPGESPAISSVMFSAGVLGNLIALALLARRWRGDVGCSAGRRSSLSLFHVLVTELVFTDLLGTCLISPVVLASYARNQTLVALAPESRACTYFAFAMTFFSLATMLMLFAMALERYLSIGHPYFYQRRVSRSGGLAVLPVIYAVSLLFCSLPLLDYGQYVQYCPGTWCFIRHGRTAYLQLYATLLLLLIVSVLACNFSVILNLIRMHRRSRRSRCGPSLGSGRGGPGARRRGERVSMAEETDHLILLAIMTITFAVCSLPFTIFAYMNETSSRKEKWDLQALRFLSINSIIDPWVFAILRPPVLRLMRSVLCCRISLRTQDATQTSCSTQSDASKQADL

Regarding `CCC1(C(O)C/C=C/[C@@H]2[C@@H](CCCc3ccc(C(=O)O)s3)CC[C@H]2Cl)CCC1` (stereo partly shown) [Compound 10], the EC50 at EP2 [1] is 17 nM and 7 nM. The Ki at EP2 [2] was 31 nM and 16 nM.
Take `CCC1(C(O)C/C=C/[C@H]2C(=O)CC[C@@H]2CCCc2ccc(C(=O)O)s2)CCC1` (stereo partly shown) [Compound 12]: at EP2 [1], the EC50 is 5.4 nM. Further, the Ki at EP2 [2] turned out to be 86 nM.
The matching figures for `CCC1(C(O)CCC[C@H]2C(=O)CC[C@@H]2CCCc2ccc(C(=O)O)s2)CCC1` (stereo partly shown) [Compound 13]: 6.3 nM and 137 nM.
The like results for `CCC1(C(O)C/C=C/C2=CCC[C@@H]2CCCc2ccc(C(=O)O)s2)CCC1` (stereo partly shown) [Compound 16] were, in that order, 32 nM and 17 nM.
The molecule `CCC1(C(O)CCCC2C(C#N)CCC2CCCc2ccc(C(=O)O)s2)CCC1` (stereo not shown) [Compound 22] had an EC50 on EP2 [1] of 18 nM. The molecule further returned a Ki on EP2 [2] of 123 nM.
As to `CCC1(C(O)C/C=C/[C@@H]2[C@@H](CCCc3ccc(C(=O)O)s3)CC[C@H]2F)CCC1` (stereo partly shown) [Compound 25], the midpoint of the response on EP2 [1], the EC50, lay at 5.7 nM. For the same molecule, the Ki at EP2 [2] was 16 nM and 67 nM.
For `CCC1(C(O)CCC[C@@H]2[C@@H](CCCc3ccc(C(=O)O)s3)CC[C@H]2F)CCC1` (stereo partly shown) [Compound 27], the midpoint of the response on EP2 [1], the EC50, lay at 8.5 nM. Also, the Ki at EP2 [2] is 15 nM and 47 nM.
For `CCC1(C(O)C/C=C/[C@@H]2[C@@H](CCCc3ccc(C(=O)O)s3)CC[C@@H]2F)CCC1` (stereo partly shown) [Compound 35], a half-maximal effect on EP2 [1] (EC50) was put at 23 nM. Moreover, the Ki on EP2 [2] was 36 nM.
The matching figures for `CCC1(C(O)CCC[C@@H]2[C@@H](CCCc3ccc(C(=O)O)s3)CC[C@@H]2F)CCC1` (stereo partly shown) [Compound 37]: 19 nM and 25 nM.
Molecule `CCC1(C(O)C/C=C/[C@@H]2[C@@H](CCCc3ccc(C(=O)O)s3)CC[C@@H]2C#N)CCC1` (stereo partly shown) [Compound 41] gave an EC50 at EP2 [1] of 129 nM. Besides, the Ki at EP2 [2] worked out at 1390 nM.
The like results for `CCC1(C(O)CCCC2C(C#N)CCC2CCCc2ccc(C(=O)O)s2)CCC1` (stereo not shown) [Compound 43] were, in that order, 54 nM and 516 nM.
The matching figures for `CCC1(C(O)C/C=C/[C@@H]2[C@@H](CCCc3ccc(C(=O)O)s3)CC[C@@H]2Cl)CCC1` (stereo partly shown) [Compound 50]: 117 nM and 1170 nM.
The matching figures for `CCC1(C(O)CCC[C@@H]2[C@@H](CCCc3ccc(C(=O)O)s3)CC[C@@H]2Cl)CCC1` (stereo partly shown) [Compound 51]: 114 nM and 377 nM.
`CCC1(C(O)CCC[C@@H]2[C@@H](CCCc3ccc(C(=O)O)s3)CC[C@H]2Cl)CCC1` (stereo partly shown) [Compound 67] returned an EC50 at EP2 [1] of 11 nM. The Ki on EP2 [2] was 40 nM.

The values above are taken from patent US8487091B2, “Substituted cyclopentanes having prostaglandin activity” (Allergan, Inc., priority 2008, dated 2013).
